Patent US11981658B2, “Substituted aminopyridine compounds as EGFR inhibitors” (YUHAN CORPORATION, priority 2021, dated 2024)
Like-named read-outs stand apart in the source and are kept apart here.

Experiments:
EGFR wildtype (WT) = EGFR wildtype (WT) (Homo sapiens, UniProt P00533); assay: Biochemical EGFR kinase inhibition assay (Lance Ultra TR-FRET), wildtype
How it was run: (§1)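 Enzyme reactions lasted 1 hour at room temperature with test compounds between 0.003 and 10 μM, followed by 10 mM EDTA quench.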

EGFR Del19/T790M/C797S = EGFR Del19/T790M/C797S (Homo sapiens, UniProt P00533, C797S/DEL746-750/T790M); assay: Biochemical EGFR kinase inhibition assay (Lance Ultra TR-FRET), triple mutant del19/T790M/C797S
How it was run: as §1

EGFR L858R/C797S = EGFR L858R/C797S (Homo sapiens, UniProt P00533, C797S/L858R); assay: Biochemical EGFR kinase inhibition assay (Lance Ultra TR-FRET), double mutant L858R/C797S
Protocol: Biochemical EGFR kinase assays were conducted using Lance Ultra time-resolved fluorescence resonance energy transfer (TR-FRET) technology from Perkin-Elmer. Compounds of the invention were initially diluted to 20 mM in 100% DMSO for storage and made into kinase buffer solution to create a compound concentration ranging from 0.003 μM and 10 μM.
Each kinase reactions were incubated at room temperature for 1 hour and then stopped by the addition of 4 μL of stop solution (10 mM EDTA). The specific Europium-labeled-anti-phosphopeptide antibody (PerkinElmer, AD0069) diluted in LANCE detection buffer was then added to a final concentration of 2 nM. After 60 minutes incubation at room temperature the LANCE signal was measured on an EnVision Multilabel Reader (Perkin-Elmer). Excitation wavelength was set at 320 nm and emission monitored at 615 nm (donor) and 665 nm (acceptor). The IC50 values were determined using GraphPad prism software (GraphPad Software, Inc., San Diego, CA, USA).

EGFR Del19/C797S = EGFR Del19/C797S (Homo sapiens, UniProt P00533, C797S/DEL746-750); assay: Biochemical EGFR kinase inhibition assay (Lance Ultra TR-FRET), double mutant del19/C797S
How it was run: as §1

EGFR L858R/T790M/C797S = EGFR L858R/T790M/C797S (Homo sapiens, UniProt P00533, C797S/L858R/T790M); assay: Biochemical EGFR kinase inhibition assay (Lance Ultra TR-FRET), triple mutant L858R/T790M/C797S
How it was run: as §1

[1] = IC50 Del19/T790M/C797S (nM), 100 μM ATP
[2] = IC50 L858R/C797S (nM), 100 μM ATP
[3] = IC50 Del19/C797S (nM), 100 μM ATP
[4] = IC50 L858R/T790M/C797S (nM), 100 μM ATP
[5] = Km ATP, read-out: IC50 WT (nM) Km ATP
[6] = Km ATP, read-out: IC50 Del19/T790M/C797S (nM) Km ATP
[7] = Km ATP, read-out: IC50 L858R/C797S (nM) Km ATP
[8] = Km ATP, read-out: IC50 Del19/C797S (nM) Km ATP
[9] = Km ATP, read-out: IC50 L858R/T790M/C797S (nM) Km ATP

Chain of EGFR L858R/C797S (P00533 25-1210 C797S/L858R): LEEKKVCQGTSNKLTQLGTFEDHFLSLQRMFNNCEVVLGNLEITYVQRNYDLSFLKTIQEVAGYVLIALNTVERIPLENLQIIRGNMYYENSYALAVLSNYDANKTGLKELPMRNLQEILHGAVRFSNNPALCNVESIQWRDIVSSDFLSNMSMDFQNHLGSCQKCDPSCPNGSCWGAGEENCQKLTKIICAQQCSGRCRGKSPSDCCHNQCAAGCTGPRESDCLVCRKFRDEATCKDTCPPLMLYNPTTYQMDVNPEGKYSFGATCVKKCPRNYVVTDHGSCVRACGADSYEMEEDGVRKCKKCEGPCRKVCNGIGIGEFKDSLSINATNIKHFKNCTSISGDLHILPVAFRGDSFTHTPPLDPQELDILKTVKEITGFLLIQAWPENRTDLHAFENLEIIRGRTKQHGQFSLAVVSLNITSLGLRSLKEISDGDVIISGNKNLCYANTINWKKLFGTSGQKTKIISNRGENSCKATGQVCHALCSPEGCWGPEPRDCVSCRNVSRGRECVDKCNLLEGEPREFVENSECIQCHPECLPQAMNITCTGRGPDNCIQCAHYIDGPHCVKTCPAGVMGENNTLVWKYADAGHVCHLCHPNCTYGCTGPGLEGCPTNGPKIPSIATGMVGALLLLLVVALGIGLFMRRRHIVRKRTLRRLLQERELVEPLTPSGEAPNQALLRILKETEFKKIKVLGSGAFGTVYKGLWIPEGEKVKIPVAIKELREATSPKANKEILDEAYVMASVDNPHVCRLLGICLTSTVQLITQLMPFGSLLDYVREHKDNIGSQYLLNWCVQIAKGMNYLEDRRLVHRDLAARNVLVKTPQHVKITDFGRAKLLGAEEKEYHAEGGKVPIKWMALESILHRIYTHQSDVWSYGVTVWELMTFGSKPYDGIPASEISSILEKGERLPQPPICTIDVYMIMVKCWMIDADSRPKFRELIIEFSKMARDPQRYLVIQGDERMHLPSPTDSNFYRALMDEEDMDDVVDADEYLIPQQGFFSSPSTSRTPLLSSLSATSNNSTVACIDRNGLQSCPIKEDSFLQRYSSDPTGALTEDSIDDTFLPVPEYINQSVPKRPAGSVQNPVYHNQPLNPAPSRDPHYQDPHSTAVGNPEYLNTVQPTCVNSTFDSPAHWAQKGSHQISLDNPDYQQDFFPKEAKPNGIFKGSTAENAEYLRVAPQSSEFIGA
Chain of EGFR Del19/C797S (P00533 with tags, fused parts or gaps DEL746-750/C797S): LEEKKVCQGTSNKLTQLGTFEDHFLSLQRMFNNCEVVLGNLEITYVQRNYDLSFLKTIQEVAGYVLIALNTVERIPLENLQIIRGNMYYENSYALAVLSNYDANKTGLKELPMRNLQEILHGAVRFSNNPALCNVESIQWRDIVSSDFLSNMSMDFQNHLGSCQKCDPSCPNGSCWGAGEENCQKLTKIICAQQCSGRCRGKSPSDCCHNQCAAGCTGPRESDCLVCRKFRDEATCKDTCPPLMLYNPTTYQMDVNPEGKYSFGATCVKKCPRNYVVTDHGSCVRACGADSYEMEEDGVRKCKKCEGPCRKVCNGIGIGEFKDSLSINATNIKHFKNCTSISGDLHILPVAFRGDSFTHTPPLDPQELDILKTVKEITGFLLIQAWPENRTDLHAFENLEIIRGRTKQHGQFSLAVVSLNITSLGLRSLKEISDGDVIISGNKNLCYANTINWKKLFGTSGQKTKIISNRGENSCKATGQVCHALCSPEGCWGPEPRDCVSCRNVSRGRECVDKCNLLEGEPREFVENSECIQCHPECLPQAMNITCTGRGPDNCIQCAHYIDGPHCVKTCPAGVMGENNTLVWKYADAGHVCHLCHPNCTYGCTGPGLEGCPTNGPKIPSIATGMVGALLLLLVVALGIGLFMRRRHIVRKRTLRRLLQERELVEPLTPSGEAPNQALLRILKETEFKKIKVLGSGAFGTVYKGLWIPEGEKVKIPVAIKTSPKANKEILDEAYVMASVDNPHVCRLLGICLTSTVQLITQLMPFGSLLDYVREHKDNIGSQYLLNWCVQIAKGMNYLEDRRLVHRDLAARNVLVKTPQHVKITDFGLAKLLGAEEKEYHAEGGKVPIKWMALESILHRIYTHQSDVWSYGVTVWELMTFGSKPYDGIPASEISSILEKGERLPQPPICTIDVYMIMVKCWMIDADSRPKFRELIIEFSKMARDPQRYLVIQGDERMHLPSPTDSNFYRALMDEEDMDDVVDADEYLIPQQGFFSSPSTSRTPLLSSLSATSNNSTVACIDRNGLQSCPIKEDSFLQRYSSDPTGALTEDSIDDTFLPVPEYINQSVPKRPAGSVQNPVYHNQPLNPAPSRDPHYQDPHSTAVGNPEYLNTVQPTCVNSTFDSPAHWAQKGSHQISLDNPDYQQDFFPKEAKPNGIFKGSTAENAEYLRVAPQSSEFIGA
Chain of EGFR Del19/T790M/C797S (P00533 with tags, fused parts or gaps DEL746-750/T790M/C797S): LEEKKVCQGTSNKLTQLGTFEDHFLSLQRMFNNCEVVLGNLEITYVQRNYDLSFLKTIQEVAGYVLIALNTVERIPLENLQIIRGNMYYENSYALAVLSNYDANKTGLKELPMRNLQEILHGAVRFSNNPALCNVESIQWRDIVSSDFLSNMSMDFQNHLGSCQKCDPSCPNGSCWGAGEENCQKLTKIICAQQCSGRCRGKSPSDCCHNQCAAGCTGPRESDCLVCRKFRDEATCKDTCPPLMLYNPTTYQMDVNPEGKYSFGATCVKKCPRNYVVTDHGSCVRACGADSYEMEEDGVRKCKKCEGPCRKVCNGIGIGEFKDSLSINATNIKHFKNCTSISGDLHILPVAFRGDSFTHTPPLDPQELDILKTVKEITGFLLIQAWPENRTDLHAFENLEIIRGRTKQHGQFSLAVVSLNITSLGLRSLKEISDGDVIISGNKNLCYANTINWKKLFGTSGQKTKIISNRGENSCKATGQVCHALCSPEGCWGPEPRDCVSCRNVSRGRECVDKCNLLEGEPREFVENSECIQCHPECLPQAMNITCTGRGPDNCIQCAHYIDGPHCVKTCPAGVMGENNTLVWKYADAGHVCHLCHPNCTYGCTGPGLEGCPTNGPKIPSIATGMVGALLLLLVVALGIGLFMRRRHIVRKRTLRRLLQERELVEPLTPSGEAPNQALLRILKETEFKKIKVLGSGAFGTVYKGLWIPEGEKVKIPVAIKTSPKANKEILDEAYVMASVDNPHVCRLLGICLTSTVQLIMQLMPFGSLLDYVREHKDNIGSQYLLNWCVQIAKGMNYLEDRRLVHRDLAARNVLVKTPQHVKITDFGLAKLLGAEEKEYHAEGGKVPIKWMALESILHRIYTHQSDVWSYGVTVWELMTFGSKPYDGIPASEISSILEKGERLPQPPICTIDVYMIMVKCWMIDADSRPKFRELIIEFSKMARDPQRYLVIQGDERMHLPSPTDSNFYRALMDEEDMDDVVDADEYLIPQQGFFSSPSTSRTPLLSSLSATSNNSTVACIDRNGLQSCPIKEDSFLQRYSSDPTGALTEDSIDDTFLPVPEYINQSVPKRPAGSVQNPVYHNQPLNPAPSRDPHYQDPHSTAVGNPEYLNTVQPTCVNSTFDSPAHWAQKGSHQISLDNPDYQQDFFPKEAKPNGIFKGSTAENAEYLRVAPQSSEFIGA
Chain of EGFR wildtype (WT) (P00533 25-1210): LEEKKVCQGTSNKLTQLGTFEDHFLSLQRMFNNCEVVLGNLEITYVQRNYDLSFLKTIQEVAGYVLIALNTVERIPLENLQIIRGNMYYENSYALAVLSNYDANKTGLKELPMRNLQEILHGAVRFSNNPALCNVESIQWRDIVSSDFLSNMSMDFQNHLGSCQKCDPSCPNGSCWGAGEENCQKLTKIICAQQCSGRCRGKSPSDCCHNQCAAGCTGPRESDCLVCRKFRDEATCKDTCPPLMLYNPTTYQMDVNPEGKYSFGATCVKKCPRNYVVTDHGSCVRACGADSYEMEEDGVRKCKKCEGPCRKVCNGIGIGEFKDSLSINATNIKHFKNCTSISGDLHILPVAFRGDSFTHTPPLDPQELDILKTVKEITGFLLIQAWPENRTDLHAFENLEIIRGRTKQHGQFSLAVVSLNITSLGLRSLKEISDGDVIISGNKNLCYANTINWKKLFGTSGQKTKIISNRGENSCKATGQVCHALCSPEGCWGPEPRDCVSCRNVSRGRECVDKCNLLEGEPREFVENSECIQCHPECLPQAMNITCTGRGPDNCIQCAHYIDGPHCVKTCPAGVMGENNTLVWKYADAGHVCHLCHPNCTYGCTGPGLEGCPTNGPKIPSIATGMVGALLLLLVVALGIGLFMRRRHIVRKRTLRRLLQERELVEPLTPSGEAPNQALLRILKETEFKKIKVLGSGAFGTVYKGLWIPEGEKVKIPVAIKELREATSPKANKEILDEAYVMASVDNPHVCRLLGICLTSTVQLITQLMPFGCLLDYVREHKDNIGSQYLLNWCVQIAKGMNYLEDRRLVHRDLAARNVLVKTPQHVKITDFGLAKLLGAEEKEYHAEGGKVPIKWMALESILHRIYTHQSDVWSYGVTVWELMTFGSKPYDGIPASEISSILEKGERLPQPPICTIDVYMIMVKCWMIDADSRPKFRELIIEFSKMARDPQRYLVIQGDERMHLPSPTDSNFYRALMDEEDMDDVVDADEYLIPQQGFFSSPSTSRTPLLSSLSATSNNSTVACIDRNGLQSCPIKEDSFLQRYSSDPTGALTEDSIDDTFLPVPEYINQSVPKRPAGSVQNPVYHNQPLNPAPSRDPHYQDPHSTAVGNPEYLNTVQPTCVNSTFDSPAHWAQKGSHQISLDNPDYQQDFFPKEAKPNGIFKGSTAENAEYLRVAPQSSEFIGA

SMILES	IC50 (EGFR wildtype (WT); IC50 WT (nM), 100 μM ATP) [nM]	IC50 (EGFR Del19/T790M/C797S; [1]) [nM]	IC50 (EGFR L858R/C797S; [2]) [nM]	IC50 (EGFR Del19/C797S; [3]) [nM]	IC50 (EGFR L858R/T790M/C797S; [4]) [nM]	IC50 (EGFR wildtype (WT); [5]) [nM]	IC50 (EGFR Del19/T790M/C797S; [6]) [nM]	IC50 (EGFR L858R/C797S; [7]) [nM]	IC50 (EGFR Del19/C797S; [8]) [nM]	IC50 (EGFR L858R/T790M/C797S; [9]) [nM]
CC(C)(CO)CNc1cc(Nc2ccnc(-c3cnn(S(=O)(=O)C4CC4)c3)n2)ncc1C#Cc1cnn(CCF)c1 [Example 40, 3-((2-((2-(1-Cyclopropylsulfonylpyrazol-4-yl)pyrimidin-4-yl)amino)-5-(2-(1-(2-fluoroethyl)pyrazol-4-yl)ethynyl)-4-pyridyl)amino)-2,2-dimethyl-propan-1-ol]	> 10000	4.8	278	49.1	13.1					
Cn1cc(C#Cc2cnc(Nc3ccnc(-c4cnn(S(=O)(=O)C5CC5)c4)n3)cc2N[C@H]2CC[C@@H](O)CC2)cn1 [Example 41, (1s, 4s)-4-((2-((2-(1-(Cyclopropylsulfonyl)-1H-pyrazol-4-yl)pyrimidin-4-yl)amino)-5-((1-methyl-1H-pyrazol-4-yl)ethynyl)pyridin-4-yl)amino)cyclohexan-1-ol]	> 10000	0.6	10	2.8	0.8	23.8	0.5	1.5	1.3	0.2
O=S(=O)(C1CC1)n1cc(-c2nccc(Nc3cc(N[C@H]4CC[C@@H](O)CC4)c(C#Cc4cnn(CCF)c4)cn3)n2)cn1 [Example 42, (1s,4s)-4-((2-((2-(1-(Cyclopropylsulfonyl)-1H-pyrazol-4-yl)pyrimidin-4-yl)amino)-5-((1-(2-fluoroethyl)-1H-pyrazol-4-yl)ethynyl)pyridin-4-yl)amino)cyclohexan-1-ol]	> 10000	1.1	11.5	3.2	1.2					
Cn1cc(C#Cc2cnc(Nc3ccnc(-c4cnn(S(=O)(=O)C5CC5)c4)n3)cc2N[C@H]2CCC[C@H](O)C2)cn1 [Example 43, (1 S,3S)-3-((2-((2-(1-(Cyclopropylsulfonyl)-1H-pyrazol-4-yl)pyrimidin-4-yl)amino)-5-((1-methyl-1H-pyrazol-4-yl)ethynyl)pyridin-4-yl)amino)cyclohexan-1-ol]	> 10000	0.6	8.9	1.7	0.7	20.3	0.5	1.1	1.4	0.2
O=S(=O)(C1CC1)n1cc(-c2nccc(Nc3cc(N[C@H]4CCC[C@H](O)C4)c(C#Cc4cnn(CCF)c4)cn3)n2)cn1 [Example 44, (1S,3S)-3-((2-((2-(1-(Cyclopropylsulfonyl)-1H-pyrazol-4-yl)pyrimidin-4-yl)amino)-5-((1-(2-fluoroethyl)-1H-pyrazol-4-yl)ethynyl)pyridin-4-yl)amino)cyclohexan-1-ol]	2310	1.2	12.7	2.6	1.4					
Cn1cc(C#Cc2cnc(Nc3ccnc(-c4cnn(S(=O)(=O)C5CC5)c4)n3)cc2N[C@@H]2CCC[C@H](O)C2)cn1 [Example 45, (1 S,3R)-3-((2-((2-(1-(Cyclopropylsulfonyl)-1H-pyrazol-4-yl)pyrimidin-4-yl)amino)-5-((1-methyl-1H-pyrazol-4-yl)ethynyl)pyridin-4-yl)amino)cyclohexan-1-ol]	> 10000	0.9	46.2	7.3	2.3					
O=S(=O)(C1CC1)n1cc(-c2nccc(Nc3cc(N[C@@H]4CCC[C@H](O)C4)c(C#Cc4cnn(CCF)c4)cn3)n2)cn1 [Example 46, (1S,3R)-3-((2-((2-(1-(Cyclopropylsulfonyl)-1H-pyrazol-4-yl)pyrimidin-4-yl)amino)-5-((1-(2-fluoroethyl)-1H-pyrazol-4-yl)ethynyl)pyridin-4-yl)amino)cyclohexan-1-ol]	> 10000	1.3	59.3	8.6	2.9					
